Experimental findings from PubChem BioAssay (NCI) are described below.

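Protocol summary: plate cells (96-well), add compound at 5 concentrations, incubate 48 h, interpolate endpoints linearly. Abbreviation: GI50, concentration required for 50% inhibition of growth. The concentration for full growth arrest is given as TGI.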

What all share (assay): NCI anticancer screen, dose series, 48 h
The test system of assay [1] is LOX IMVI melanoma.
Assay [2] has as its system HOP-62 NSCLC.
For assay [3], the system named is NCI-H226 lung.
Assay [4] concerns HOP-92 NSCLC.
Assay [5] has as its system SN12C renal.
The subject of assay [6] is SF-539 CNS.
The subject of assay [7] is MOLT-4 leukemia.
Assay [8] has as its system SNB-19 CNS.
The test system of assay [9] is M14 melanoma.
For assay [10], the system named is RXF 393 renal.

With `COc1nc(NC2OC(COC(C)=O)C(OC(C)=O)C(OC(C)=O)C2OC(C)=O)c(-c2csc(N)n2)c(=O)n1C` (configuration not stated), the TGI in [1], in assay [2], in assay [3], in assay [4], in assay [5] and in assay [6] was more than 100 µM in each case. Also, the TGI in assay [7], in [8] and in [9] was more than 100 µM throughout.

Turning to `C/C=C1\C(=O)OC2CCN3CCC(COC(=O)C(C)(O)C(C)C1O)C23` (configuration not stated), the TGI in assay [1], in [3], in assay [4], in assay [5], in assay [6] and in assay [7] was more than 100 µM throughout. In addition, the TGI in [8] and in assay [9] was more than 100 µM throughout.

On to `S=c1nc(-c2ccnc(-c3nc(=S)[nH][nH]3)c2)[nH][nH]1`, for which the TGI in [1], in assay [2], in [3], in assay [5], in assay [6] and in [10] was more than 100 µM in each case. Besides, the TGI in assay [7], in assay [8] and in [9] was more than 100 µM in each case.

Consider `COc1cc([N+](=O)[O-])c2ncccc2c1[N+](=O)[O-]`, for which the GI50 is 2.31 µM in assay [1]; 11.7 µM in assay [2]; 15.3 µM in [3]; 12.5 µM in [5]; 3.61 µM in assay [6]; 4.37 µM in assay [10]. Also, the values for the GI50 in [7], in assay [8] and in [9] were 4.92 µM, 15.9 µM and 4.24 µM, respectively. Further, the TGI stood at 8.29 µM in [1]; 24.8 µM in assay [2]; 31.5 µM in assay [3]; 25.3 µM in assay [5]; 13.6 µM in assay [6]; 17.5 µM in assay [10]. Also, the figures for the TGI in assay [7], in assay [8] and in assay [9] were more than 100 µM, 30.8 µM and 15.8 µM, respectively.

As for `CC1CC2(C)CC(=O)C1C1C(=O)N(CCN3CCCCC3)C(=O)C12` (configuration not stated), the GI50 in assay [1], in [2], in [3], in [4], in [5] and in assay [6] was more than 100 µM each time. The GI50 in assay [7], in [8] and in assay [9] was more than 100 µM each time. Moreover, the TGI in [1], in [2], in [3], in [4], in assay [5] and in assay [6] was more than 100 µM each time. For the same compound, the TGI in assay [7], in assay [8] and in assay [9] was more than 100 µM throughout.

On to `O=C(Nc1cccc(NC(=O)c2cc(=O)c3ccccc3o2)n1)c1cc(=O)c2ccccc2o1`, for which the TGI in assay [1] is more than 100 µM; in [2] it was more than 100 µM; in [4] it was 52.7 µM; in [6], more than 100 µM; in assay [10] it was more than 100 µM; in assay [7], more than 100 µM. The TGI in assay [8] and in assay [9] was more than 100 µM each time.

Turning to `C#CCN(Cc1ccc2nc(N)[nH]c(=O)c2c1)c1ccc(C(=O)NC(CCC(=O)O)C(=O)O)cc1` (configuration not stated), the TGI in assay [1], in [2], in assay [3], in assay [4], in assay [5] and in [6] was more than 100 µM throughout. Also, the TGI in [7], in assay [8] and in assay [9] was more than 100 µM each time.

With `COc1cc2c(c(OC)c1OC)-c1ccc(SC)c(=O)cc1[C@@H](NC(=O)c1ccc(Cl)cc1)CC2`, the TGI in assay [1] is 14.1 µM; in [2] it was 2.03 µM; in assay [3] it was less than 0.01 µM; in assay [5] it was 12.7 µM; in [6], less than 0.01 µM; in assay [10], 19.4 µM. Moreover, the results for the TGI in assay [7], in assay [8] and in [9] were more than 100 µM, 11.1 µM and 2.3 µM, respectively.

In the case of `O=C1C=CC2(C=C1)C[C@H](NC(=O)C(F)(F)F)C(=O)O2`, the TGI in [1] is 51 µM; in [2] it was more than 100 µM; in [3], more than 100 µM; in assay [5], more than 100 µM; in [6] it was more than 100 µM; in assay [10], more than 100 µM. The TGI in assay [7], in assay [8] and in [9] was more than 100 µM throughout.

Take `CCOC(=O)[C@H]1Nc2ccccc2C2c3ccccc3CC21` (some centres not stated): the TGI is more than 100 µM in [1]; more than 100 µM in [2]; more than 100 µM in assay [3]; 96.3 µM in assay [5]; more than 100 µM in assay [6]; 31.1 µM in assay [10]. The TGI in [7], in assay [8] and in [9] was more than 100 µM each time.

`N[C@@H]1CCCC[C@@H]1N.O=P([O-])([O-])CN(CP(=O)([O-])[O-])CP(=O)([O-])[O-].[Pt+2]`: the GI50 in assay [1], in [2], in [3], in assay [4], in assay [5] and in [6] was more than 100 µM in each case. In addition, the GI50 in assay [7], in [8] and in assay [9] was more than 100 µM each time. The TGI in [1], in [2], in assay [3], in assay [4], in [5] and in [6] was more than 100 µM throughout. The TGI in [7], in [8] and in [9] was more than 100 µM in each case.

Consider `CCCCCCCCCCCCOP(N)(=O)OCCCCCCCCCCCC`, for which the TGI in assay [1], in [2], in [5], in assay [6], in assay [10] and in [7] was more than 100 µM throughout. The TGI in [8] and in assay [9] was more than 100 µM in each case.
